Columns and labels:
[1] = Hydrolysis of prodrugs under physiological conditions (pH 7, 37° C., HPLC); assay type: physicochemical; settings: 25 mM phosphate buffer pH 7, 37° C.; for Compound 3-C: remaining prodrug; for Compound 3: parent acid formed from 3-C
Experimental: As shown in Scheme VII, compounds of Formula VII-A wherein R^1 and R^2 are as defined for Formula I, are hydrolyzed at pH 7 (37° C.) to yield the corresponding 2-hydroxy acrylic, VII-B, and are thus useful as prodrugs. [drawing 203]
In an experiment to measure the hydrolysis of compounds such as VII-A, compound 3-C was added to 25 mM phosphate buffer (pH 7) at a concentration of 0.03 mg/mL. The reaction was incubated at 37° C. for a period of 24 hours. Interval time points are analyzed by HPLC, identifying both the compound 3-C and compound 3, the parent acid.

[2] = system: single cycle, recombinant HIV virus expressing Renella luciferase; assay: Inhibition of HIV replication (single cycle recombinant virus, luciferase readout); assay type: cell-based; settings: Human immunodeficiency virus 1, 120 h, read-out: % Inhibition @ 1.6 uM
Experimental: Cell culture assays were preformed using a single cycle, recombinant HIV virus expressing Renella luciferase. Anti-viral activity was evaluated by measuring the production of luciferase in the infected cells 5 days post-infection. Susceptibility of the virus to compounds was determined by incubation in the presence of the serially-diluted compound. The 50% effective concentration (EC50) was calculated by using the exponential form of the median effect equation where (Fa)=1/[1+(ED50/drug conc.)^m]. Compounds of this invention tested in this assay have EC50's of approximately 0.02 to 50 μM.

HIV-integrase = target: T1, HIV-integrase (Human immunodeficiency virus type 1 group M subtype B, UniProt P04585); assay: HIV-integrase inhibition activity (SPA bead strand-transfer assay); assay type: biochemical; settings: 50 μM compound; recombinant integrase
T1 construct: 0.26 ng of recombinant integrase was incubated with the beads
Experimental: For each reaction, 5 pmole of biotin labled substrate DNA was bound to 100 ug of Streptavidin coated PVT SPA beads (Amersham Pharmacia Biotech). 0.26 ng of recombinant integrase was incubated with the beads for 90 min at 37° C. Unbound enzyme was removed by washing the complex followed by addition of inhibitors and 0.1 fmol of P33 labeled target DNA. Reaction was stopped by adding EDTA to a final concentration of 10 mM. Samples were counted in TopCountNXT (Packard) and the CPM was used as a measure of integration. Reaction condition was as described in A. Engelman and R. Craigie, J. Virol. 69, 5908-5911 (1995). The sequences of substrate and target DNA were described in Nucleic Acid Research 22, 1121-1122 (1994). Compounds of this invention tested in this assay have IC50's of approximately 0.01 to 50 μM

SMILES	inhibition at 1.6 µM [2]	inhibition at 50 µM (HIV-integrase)	melting point	other results
CON(Cc1ccc(F)cc1)C(=O)/C=C1\OC(C)(C)OC1=O [Compound 3-C, 2-(2,2-Dimethyl-5-oxo-[1,3]dioxolan-4-ylidene)-N-(4-fluoro-benzyl)-N-methoxy-acetamide]	96%	–	–	Compound 3-C ([1]; 3-C added at 0.03 mg/mL, time 0 h): 0.026 mg/mL; Compound 3-C ([1]; time 0.5 h): 0.022 mg/mL; Compound 3-C ([1]; time 1 h): 0.017 mg/mL; Compound 3-C ([1]; time 1.5 h): 0.013 mg/mL; Compound 3-C ([1]; time 2 h): 0.010 mg/mL; Compound 3-C ([1]; time 4 h): 0.003 mg/mL; Compound 3-C ([1]; time 6 h): 0.001 mg/mL
CON(Cc1ccc(F)c(Cl)c1)C(=O)/C=C(\O)C(=O)O [Compound 5, 3-[(3-Chloro-4-fluoro-benzyl)-methoxy-carbamoyl]-2-hydroxy-acrylic acid]	96%	99.9%	–	–
CON(Cc1ccccc1C)C(=O)/C=C(\O)C(=O)O [Compound 15, 2-Hydroxy-3-[methoxy-(2-methyl-benzyl)-carbamoyl]-acrylic acid]	33%	99%	85 to 87 °C (dec.)	–
CON(Cc1ccc(Cl)c(Cl)c1)C(=O)/C=C(\O)C(=O)O [Compound 4, 3-[(3,4-Dichloro-benzyl)-methoxy-carbamoyl]-2-hydroxy-acrylic acid]	90%	99.9%	–	–
CON(Cc1ccccc1OC(C)C)C(=O)/C=C(\O)C(=O)O [Compound 31, 2-Hydroxy-3-[(2-isopropoxy-benzyl)-methoxy-carbamoyl]-acrylic acid]	47%	–	–	–
O=C(O)CON(Cc1ccc(F)cc1)C(=O)/C=C(\O)C(=O)O [Compound 24, 3-[Carboxymethoxy-(4-fluoro-benzyl)-carbamoyl]-2-hydroxy-acrylic acid]	–	99.9%	135 to 138 °C	–
CON(Cc1ccc(F)cc1F)C(=O)/C=C(\O)C(=O)O [Compound 17, 3-[(2,4-Difluoro-benzyl)-methoxy-carbamoyl]-2-hydroxy-acrylic acid]	–	99.9%	131 to 132 °C	–
COC(=O)c1ccc(CN(OC)C(=O)C=C(O)C(=O)O)cc1 [Compound 18, 4-{[(3-Carboxy-3-hydroxy-acryloyl)-methoxy-amino]-methyl}-benzoic acid methyl ester]	–	96%	110 to 111 °C	–
CON(Cc1ccc(C#N)cc1)C(=O)/C=C(\O)C(=O)O [Compound 21, 3-[(4-Cyano-benzyl)-methoxy-carbamoyl]-2-hydroxy-acrylic acid]	–	99.9%	135 to 137 °C (dec.)	–
CON(Cc1ccc(F)c(F)c1)C(=O)/C=C(\O)C(=O)O [Compound 11, 3-[(3,4-Difluoro-benzyl)-methoxy-carbamoyl]-2-hydroxy-acrylic acid]	–	99.9%	127 to 129 °C	–
CON(Cc1ccc(Cl)c(Cl)c1)C(=O)/C=C1\OC(C)(C)OC1=O [Compound 4-B, N-(3,4-Dichloro-benzyl)-2-(2,2-dimethyl-5-oxo-[1,3]dioxolan-4-ylidene)-N-methoxy-acetamide]	87%	–	119 to 120 °C	–
CON(Cc1ccc(F)cc1)C(=O)/C=C(\O)C(=O)O [Compound 3, 3-[(4-Fluoro-benzyl)-methoxy-carbamoyl]-2-hydroxy-acrylic acid]	96%	99.9%	129 °C (dec.)	Compound 3 ([1]; time 0 h): 0.001 mg/mL; Compound 3 ([1]; time 0.5 h): 0.008 mg/mL; Compound 3 ([1]; time 1 h): 0.012 mg/mL; Compound 3 ([1]; time 1.5 h): 0.014 mg/mL; Compound 3 ([1]; time 2 h): 0.016 mg/mL; Compound 3 ([1]; time 4 h): 0.021 mg/mL; Compound 3 ([1]; time 6 h): 0.022 mg/mL
CCON(Cc1ccc(F)cc1)C(=O)/C=C(\O)C(=O)O [Compound 12, 3-[Ethoxy-(4-fluoro-benzyl)-carbamoyl]-2-hydroxy-acrylic acid]	–	99.9%	120 to 121 °C (dec.)	–
CON(Cc1ccc(F)c(Cl)c1)C(=O)/C=C1\OC(C)(C)OC1=O [Compound 5-B, N-(3-Chloro-4-fluoro-benzyl)-2-(2,2-dimethyl-5-oxo-[1,3]dioxolan-4-ylidene)-N-methoxy-acetamide]	94%	–	110 to 111 °C	–
CON(CCc1ccc(F)cc1)C(=O)/C=C(\O)C(=O)O [Compound 9, 3-{[2-(4-Fluoro-phenyl)-ethyl]-methoxy-carbamoyl}-2-hydroxy-acrylic acid]	–	99.9%	107 to 108 °C (dec.)	–
